Measurements as given in PubChem BioAssay (NCI).
Several values for one entry are separate records, joined by “and”; a condition that tells them apart may be missing. Identical values can stand only once.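 All cell lines were grown in 96-well plates and treated with compound for 48 hours. GI50 = concentration required for 50% inhibition of growth. TGI: concentration producing complete growth inhibition.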 Where a SMILES comes first, the peptide text is derived from it. [ ]: non-standard residue; d: D form. The star is where a group is joined. Dolaproine = CO[C@@H]([C@@H]1CCCN1)[C@@H](C)C(=O)O; Dil = CC[C@H](C)[C@H](NC)[C@@H](CC(=O)O)OC; X2 = C[C@@H](N*)[C@@H](O)c1ccccc1; NMeV = CN[C@H](C(=O)O)C(C)C

Columns and labels:
Assay in all cases: NCI-60 cell line screen, 48 h
BT-549 breast = system: BT-549 breast
PC-3 prostate = system: PC-3 prostate
IGROV1 ovarian = system: IGROV1 ovarian
U251 CNS = system: U251 CNS
OVCAR-4 ovarian = system: OVCAR-4 ovarian
MCF7 breast = system: MCF7 breast
SF-268 CNS = system: SF-268 CNS
HL-60(TB) leukemia = system: HL-60(TB) leukemia
NCI/ADR-RES ovarian = system: NCI/ADR-RES ovarian
ACHN renal = system: ACHN renal
SNB-19 CNS = system: SNB-19 CNS
COLO 205 colon = system: COLO 205 colon
NCI-H23 lung = system: NCI-H23 lung
LOX IMVI melanoma = system: LOX IMVI melanoma
M14 melanoma = system: M14 melanoma
UACC-62 melanoma = system: UACC-62 melanoma
HCT-116 colon = system: HCT-116 colon
OVCAR-5 ovarian = system: OVCAR-5 ovarian
UACC-257 melanoma = system: UACC-257 melanoma
SR leukemia = system: SR leukemia
SW-620 colon = system: SW-620 colon
786-0 renal = system: 786-0 renal
SF-295 CNS = system: SF-295 CNS
HCT-15 colon = system: HCT-15 colon
CAKI-1 renal = system: CAKI-1 renal
OVCAR-3 ovarian = system: OVCAR-3 ovarian
DU-145 prostate = system: DU-145 prostate
SK-OV-3 ovarian = system: SK-OV-3 ovarian
SN12C renal = system: SN12C renal
MALME-3M melanoma = system: MALME-3M melanoma
HS 578T breast = system: HS 578T breast
SK-MEL-2 melanoma = system: SK-MEL-2 melanoma
CCRF-CEM leukemia = system: CCRF-CEM leukemia
HT29 colon = system: HT29 colon
UO-31 renal = system: UO-31 renal
OVCAR-8 ovarian = system: OVCAR-8 ovarian
HOP-62 NSCLC = system: HOP-62 NSCLC
NCI-H522 lung = system: NCI-H522 lung
A498 renal = system: A498 renal
A549 NSCLC = system: A549 NSCLC
SK-MEL-5 melanoma = system: SK-MEL-5 melanoma
EKVX NSCLC = system: EKVX NSCLC
SNB-75 CNS = system: SNB-75 CNS
MDA-MB-435 = system: MDA-MB-435
MOLT-4 leukemia = system: MOLT-4 leukemia
HOP-92 NSCLC = system: HOP-92 NSCLC
MDA-MB-231 breast = system: MDA-MB-231 breast
TK-10 renal = system: TK-10 renal
RPMI-8226 leukemia = system: RPMI-8226 leukemia
HCC-2998 colon = system: HCC-2998 colon
NCI-H460 lung = system: NCI-H460 lung
KM12 colon = system: KM12 colon
SF-539 CNS = system: SF-539 CNS
NCI-H226 lung = system: NCI-H226 lung
K-562 leukemia = system: K-562 leukemia

## CC[C@H](C)[C@@H]([C@@H](CC(=O)N1CCC[C@H]1[C@H](OC)[C@@H](C)C(=O)N[C@H](C)[C@@H](O)c1ccccc1)OC)N(C)C(=O)[C@@H](NC(=O)[C@@H](NC)C(C)C)C(C)C (H-[NMeV]V[Dil][Dolaproine]-X2)
BT-549 breast
  GI50: < 5 nM and 14.1 nM
  TGI: 50.7 nM and 82.1 nM
PC-3 prostate
  GI50: < 5 nM
  TGI: > 100000 nM
IGROV1 ovarian
  GI50: 8.31 nM and < 10 nM
  TGI: > 100000 nM
U251 CNS
  GI50: < 5 nM
  TGI: > 100000 nM
OVCAR-4 ovarian
  TGI: > 100000 nM
MCF7 breast
  GI50: < 5 nM
  TGI: > 100000 nM
SF-268 CNS
  GI50: 6.38 nM and < 10.8 nM
  TGI: > 100000 nM
HL-60(TB) leukemia
  GI50: < 5 nM
  TGI: 7.87 nM and < 10 nM
NCI/ADR-RES ovarian
  GI50: 169 nM and 118 nM
  TGI: > 50000 nM and 9410 nM
ACHN renal
  GI50: 24 nM and 20.2 nM
  TGI: > 100000 nM
SNB-19 CNS
  GI50: < 5 nM
  TGI: > 100000 nM
COLO 205 colon
  GI50: < 5 nM
  TGI: < 5 nM
NCI-H23 lung
  GI50: < 5 nM
  TGI: > 50000 nM
LOX IMVI melanoma
  GI50: < 5 nM
  TGI: > 100000 nM
M14 melanoma
  GI50: < 5 nM
  TGI: 7.05 nM
UACC-62 melanoma
  GI50: < 5 nM
  TGI: > 100000 nM
HCT-116 colon
  GI50: < 10 nM
  TGI: > 100000 nM
OVCAR-5 ovarian
  GI50: < 5 nM
  TGI: > 100000 nM
UACC-257 melanoma
  TGI: > 100000 nM
SR leukemia
  GI50: < 5 nM
  TGI: > 100000 nM
SW-620 colon
  GI50: < 5 nM
  TGI: > 100000 nM
786-0 renal
  GI50: 6.46 nM and < 10 nM
  TGI: > 100000 nM
SF-295 CNS
  GI50: < 5 nM
  TGI: > 100000 nM
HCT-15 colon
  GI50: 44.4 nM and 23.3 nM
  TGI: > 100000 nM
CAKI-1 renal
  GI50: < 10 nM
  TGI: > 94800 nM
OVCAR-3 ovarian
  GI50: < 10 nM
  TGI: 651 nM
DU-145 prostate
  GI50: < 5 nM
  TGI: > 100000 nM
SK-OV-3 ovarian
  GI50: < 5 nM
  TGI: > 100000 nM
SN12C renal
  GI50: < 5 nM
  TGI: > 100000 nM
MALME-3M melanoma
  TGI: > 100000 nM
HS 578T breast
  GI50: 10.1 nM and < 10 nM
  TGI: > 100000 nM
SK-MEL-2 melanoma
  GI50: < 5 nM
  TGI: > 100000 nM
CCRF-CEM leukemia
  GI50: < 5 nM
  TGI: > 100000 nM
HT29 colon
  GI50: < 5 nM
  TGI: 154 nM
UO-31 renal
  GI50: 41.9 nM
  TGI: > 100000 nM
OVCAR-8 ovarian
  GI50: 7.64 nM and < 10 nM
  TGI: > 50000 nM
HOP-62 NSCLC
  GI50: < 5 nM
  TGI: > 100000 nM
NCI-H522 lung
  GI50: < 5 nM
  TGI: 12.2 nM and < 10 nM
A498 renal
  GI50: 5.18 nM
  TGI: 387 nM
A549 NSCLC
  GI50: < 5 nM
  TGI: > 100000 nM
SK-MEL-5 melanoma
  GI50: < 5 nM
  TGI: 50.5 nM and 77.2 nM
EKVX NSCLC
  GI50: 6.92 nM and < 10 nM
  TGI: > 100000 nM
SNB-75 CNS
  GI50: < 5 nM
  TGI: > 50000 nM
MDA-MB-435
  GI50: < 5 nM
  TGI: < 5 nM
MOLT-4 leukemia
  GI50: < 5 nM
  TGI: > 100000 nM
HOP-92 NSCLC
  TGI: > 100000 nM
MDA-MB-231 breast
  GI50: < 5 nM
  TGI: > 13100 nM and 1840 nM
TK-10 renal
  GI50: > 100000 nM
  TGI: > 100000 nM
RPMI-8226 leukemia
  GI50: < 5 nM
  TGI: > 100000 nM
HCC-2998 colon
  GI50: < 5 nM
  TGI: > 100000 nM
NCI-H460 lung
  GI50: < 5 nM
  TGI: > 100000 nM
KM12 colon
  GI50: < 5 nM
  TGI: > 100000 nM
SF-539 CNS
  GI50: < 5 nM
  TGI: 12.8 nM and < 10.7 nM
NCI-H226 lung
  GI50: 17.9 nM and < 15.6 nM
  TGI: > 50000 nM
K-562 leukemia
  GI50: < 5 nM
  TGI: > 100000 nM
